Columns and labels:
[1] = test system: Tyr mice; experiment: Behavioral assessments (odor discrimination and others); assay type: in vivo, mouse; parameters: key to NAP efficacy: cognitive impairments, behavioral deficits: corrections by NAP treatment (+)
Description: Animals—Animals were housed under a 12-hour light/dark cycle, with food and water ad-libitum. Mouse pups were subcutaneously administrated with NAP [having an amino acid sequence NAPVSIPQ (SEQ ID NO: 2), 25 μg NAP/1 ml saline] as described (8, 12). At 21 days of age mice were administered daily intranasal NAP in vehicle solution (“DD”—7.5 mg/ml of NaCl, 1.7 mg/ml of citric acid, 3 mg/ml of disodium phosphate dihydrate, and 0.2 mg/ml of 50% benzalkonium chloride solution) (0.5 μg NAP/5p1 DD) (8, 9, 12, and U.S. Pat. No. 10,912,819 to Gozes). These mice continued to behavioral analysis as described hereinbelow. The noninvasive intranasal route was chosen as these experiments required daily handling and administration. Age (weeks) of mice during behavioral experiments (mean±SEM) was as follows: Catwalk-9.23±0.15, grooming-10±0.15, social approach-10.5±0.12, odor-discrimination-12.12±0.13, hanging-wire-13±0.14, hotplate-13.18±0.13. Group size was determined following previous experiments (12). Pups were randomly allocated to either the NAP or DD group according to sex and genotype. […]
Novel object recognition: Briefly, the open field test was used for the first day of habituation since both tests are conducted in the same arena. […] The time spent sniffing/touching each object was measured using the EthoVision XT video tracking system and software (Noldus Inc. Leesburg, VA). Data were analyzed using the discrimination capacity formula: D2=(b−a)/(a+b), where ‘a’ designated the time of exploration of the familiar object and ‘b’ designated the time of exploration of the novel object.
Social approach: A plexiglas box was divided into three adjacent chambers, each 20 cm (length)×40.5 cm (width)×22 cm (height), separated by two removable doors. […] The next day, each subject mouse was tested in an experiment with three phases, (measured with a simple timer): I and II (5 minutes long), the habituation phases (ensuring no bias), and III (10 minutes long), the experimental phase. […]

[2] = test system: N1E-115 cells; experiment: Polymerized vs. soluble tubulin assay; assay type: cell-based, mouse; details: zinc 400 μM, 4 h, peptide 10^−12 M
Description: Polymerized vs. soluble tubulin assay—To quantify tubulin polymerization and Tau-MT association, a simple assay was performed as previously described. The cells grown to confluence in six-well plates were washed with MT buffer (80 mM PIPES pH 6.8, 1 mM MgCl^2, 2 mM EGTA, 5% Glycerol) and lysed at room temperature for 5 min through centrifugation (300 g), with 150 μl of MT buffer with 0.5% Triton X-100 to extract soluble (cytosolic) tubulin (S). The pelleted cells were rinsed once again with an equal volume of modified RIPA lysis buffer (50 mM Tris-HCL pH 7.4, 150 mM NaCl, 2 mM EGTA, 1% Triton X-100, 0.1% SDS, 0.1% sodium Deoxycholate) to collect the polymerized (cytoskeletal) tubulin (P). The cytosolic and cytoskeletal fractions were each mixed with sample buffer and heated at 95° C. for 5 min. An equal volume of each fraction was analyzed by immunoblotting with Tau, tubulin and actin antibodies, and the results following ECL development were quantified by densitometry (GelQuant.NET software provided by biochemlabsolutions(dot)com).
It is known that in the presence of extracellular zinc NAP protects MT against degradation by promoting Tau binding to the MT shaft. Polymerized vs. soluble tubulin assay was effected to compare protective activities of NAP and SKIP against MT degradation and Tau-MT dissociation (FIGS. 11F-G). After treatments with zinc (400 μM, 4 h) with and without NAP or SKIP (10^−12 M, 4 h) the cellular-tubulin pool was separated into polymerized and soluble tubulin fractions. The amount of Tau, tubulin, and actin was identified by immunoblotting (FIG. 11F), followed by densitometric quantification (FIG. 11G).

[3] = test system: Shank3-Adnp-actin interactions; experiment: Actin co-immunoprecipitations from mouse brain extracts
Description: De novo heterozygous mutations in ADNP reproduced the autistic ADNP syndrome. ADNP mutations impair microtubule (MT) function, essential for synaptic activity. The ADNP MT-associating fragment NAPVSIPQ (NAP) (SEQ ID NO 2) contains an MT end-binding protein interacting domain, SxIP (mimicking the active-peptide, SKIP, SEQ ID NO 21). The inventors hypothesized that not all ADNP mutations are similarly deleterious and that the NAPV portion of NAPVSIPQ is biologically active. Using the eukaryotic linear motif (ELM) resource, the inventors identified a Src homology 3 (SH3) domain-ligand association site in NAP responsible for controlling signaling pathways regulating the cytoskeleton, namely NAPVSIP (SEQ ID NO: 2). Altogether, the inventors mapped multiple SH3-binding sites in ADNP. […] Site-directed-mutagenesis, abolishing the p.Lys408Valfs*31 SH3-binding motif, produced MT toxicity. […] Lastly, SH3 and multiple ankyrin repeat domains protein 3 (SHANK3), a major autism gene product, interact with the cytoskeleton through an actin-binding motif to modify behavior.

With CC[C@H](C)[C@H](NC(=O)[C@H](CO)NC(=O)[C@@H](NC(=O)[C@@H]1CCCN1C(=O)[C@H](C)NC(=O)[C@@H](N)CC(N)=O)C(C)C)C(=O)N1CCC[C@H]1C(=O)N[C@@H](CCC(N)=O)C(=O)O [NAP, NAPVSIPQ] as the molecule, how does the Odor discrimination ([1]; Tyr mice, daily intranasal NAP, data not shown) read?
The Odor discrimination was “NAP reversal in females”.

What about the “NAP efficacy: cognitive impairments, behavioral deficits” value ([1]; Tyr mouse (odor), first symbol of cell) of the same molecule?
The value was “+(odor)/+(8)”.

What about the “Behavioral, motor, social and sensory traits” value ([1]; WT mice, data not shown) of the same molecule?
Its value is “varied minor effects”.

And the “Protection against Tau dissociation from MTs” value [2]?
Its value is “only NAP exhibited protection”.

And the “Protection of polymerized tubulin against zinc-induced decay” value [2]?
The value was “protected against zinc-induced decay”.

And the Shank3-Adnp-actin interactions [3]?
Its Shank3-Adnp-actin interactions is “NAP-mediated normalization”.
